From patent US7476668B2, “Thiadiazine derivatives and use thereof as positive AMPA receptor modulators” (Les Laboratoires Servier, priority 2003, dated 2009) come the findings set out here.

The experiment deals with AMPA receptors (rat cerebral cortex poly(A+) mRNA expressed in Xenopus oocytes). Put plainly: Excitatory currents induced by AMPA in Xenopus oocytes (two-electrode voltage-clamp). Conditions: (S)-AMPA 10 μM; Xenopus oocytes injected with rat cortex mRNA; 20-24° C. In kind it is cell-based. On the procedure: Study of the Excitatory Currents Induced by AMPA in Xenopus Oocytes
mRNA's are prepared from cerebral cortex of male Wistar rats by the guanidinium thiocyanate/phenol/chloroform method. The poly (A^+) mRNA's are isolated by chromatography on oligo-dT cellulose and injected at a level of 50 ng per oocyte. The oocytes are incubated for 2 to 3 days at 18° C. to permit expression of the receptors and are then stored at 8-10° C.
Electrophysiological recording is carried out in a Plexiglass® chamber at 20-24° C. in OR2 medium (J. Exp. Zool., 1973, 184, 321-334) by the “voltage-clamp” method using two electrodes, a third electrode being placed in the bath serving as reference.
All the compounds are applied via the incubation medium and the electric current is measured at the end of the application period. (S)-AMPA is used in a concentration of 10 μM. For each compound studied, the concentration that doubles (EC2X) or quintuples (EC5X) the intensity of the current induced by AMPA alone (5 to 50 nA) is determined.
The compounds of the invention potentiate the excitatory effects induced by (S)-AMPA to a very considerable degree.
A general note: Two-electrode voltage clamp is typically applied to oocytes expressing channels or transporters.

As to `CN1CNS(=O)(=O)c2c(Cl)sc(Cl)c21` [Example 6, 5,7-Dichloro-4-methyl-3,4-dihydro-2H-thieno[3,4-e][1,2,4]thiadiazine 1,1-dioxide], the “EC2X (concentration that doubles the intensity of the current induced by AMPA alone)” value was 5.4 ± 2.8 µM and the “EC5X (concentration that quintuples the intensity of the current induced by AMPA alone)” value came out at 11.3 ± 4.9 µM.

As for `CC(C)N1CNS(=O)(=O)c2sc(Cl)cc21` [Example 4, 6-Chloro-4-isopropyl-3,4-dihydro-2H-thieno[3,2-e][1,2,4]thiadiazine 1,1-dioxide], the “EC2X (concentration that doubles the intensity of the current induced by AMPA alone)” value was found to be 4.2 ± 0.7 µM and the “EC5X (concentration that quintuples the intensity of the current induced by AMPA alone)” value is 11 ± 3 µM.
